According to US11168073B2, “3,3-difluoroallylamines or salts thereof and pharmaceutical compositions comprising the same” (YUHAN CORPORATION, priority 2018, dated 2021):
Where a name gives a salt, the structure may show the parent alone. Read-outs that look alike come from different tables or passages of the source.

What was measured:
Format in all cases: biochemical
recombinant human VAP-1 = target: T1, recombinant human VAP-1 (Homo sapiens, UniProt Q16853); experiment: Activity evaluation on recombinant human VAP-1 (Amplex Red/HRP-coupled hydrogen peroxide assay, benzylamine substrate); conditions: read-out: Inhibitory Activity (IC50, nM) human VAP-1
T1 construct: purchased R&D systems
T1 sequence (Q16853 1-763): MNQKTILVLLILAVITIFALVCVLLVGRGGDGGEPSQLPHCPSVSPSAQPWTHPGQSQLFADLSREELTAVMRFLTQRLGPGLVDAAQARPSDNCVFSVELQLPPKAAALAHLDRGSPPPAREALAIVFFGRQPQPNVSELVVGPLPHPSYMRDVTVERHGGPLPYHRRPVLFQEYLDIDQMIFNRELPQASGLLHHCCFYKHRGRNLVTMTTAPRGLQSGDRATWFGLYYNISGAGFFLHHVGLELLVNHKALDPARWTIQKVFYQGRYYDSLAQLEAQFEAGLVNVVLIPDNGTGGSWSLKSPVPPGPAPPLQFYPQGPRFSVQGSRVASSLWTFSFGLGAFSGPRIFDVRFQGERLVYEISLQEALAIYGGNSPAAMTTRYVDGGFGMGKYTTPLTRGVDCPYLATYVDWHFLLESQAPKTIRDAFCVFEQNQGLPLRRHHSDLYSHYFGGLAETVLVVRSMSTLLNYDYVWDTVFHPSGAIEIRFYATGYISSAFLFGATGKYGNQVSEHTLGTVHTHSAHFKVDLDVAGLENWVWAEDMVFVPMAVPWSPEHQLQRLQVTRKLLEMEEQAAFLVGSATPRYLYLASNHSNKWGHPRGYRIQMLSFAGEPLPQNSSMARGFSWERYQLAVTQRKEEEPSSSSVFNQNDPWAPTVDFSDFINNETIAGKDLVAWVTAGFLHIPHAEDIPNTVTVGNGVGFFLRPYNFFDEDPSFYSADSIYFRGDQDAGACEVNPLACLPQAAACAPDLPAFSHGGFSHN
Description: (§1) The compounds according to the present technology were evaluated in terms of activity on recombinant human VAP-1 (R&D systems) by measuring the level of hydrogen peroxide in horseradish peroxidase (HRP)-coupled reaction using Amplex Red Hydrogen Peroxide Assay Kit (Molecular Probes, Invitrogen, USA). The experiment was carried out at room temperature using benzylamine as a substrate. In the HRP-coupled reaction, hydrogen peroxide oxidation of 10-acetyl-3,7-dihydroxyphenoxazine (Amplex Red reagent) produces resorufin, which is a highly fluorescent compound. Briefly, the test compound was dissolved in dimethyl sulfoxide (DMSO) at a concentration of 20 mM. The dose-response assessment was made by 1:3 serial dilution in DMSO, thereby creating a 8 point curve. The concentration of the upper part was controlled according to the efficacy of the compounds, followed by the dilution with a reaction buffer solution to obtain a final DMSO concentration of less than 1%. To each well of a 96 black well plate, human VAP-1 purified in 50 mM sodium phosphate buffer solution (pH7.4) was added. The test compounds dissolved in DMSO were incubated with the human VAP-1 enzymes at 37° C. for 30 minutes. After 30-minute incubation, each well was added with a reaction mixture containing 200 uM Amplex Red reagent prepared from 50 mM sodium phosphate buffer solution (pH 7.4), 1 mM benzylamine, and 1 U/mL HRP. Fluorescence intensity was measured at several time points during 1-2 hours using a microplate reader (Flexstation3, Molecular Devices) under the wavelength condition exciting at 544 nm and reading the emission at 590 nm. The inhibitory effect of the compounds was measured as a decrease (%) in the signal rate as compared to the control group without any inhibitor (only diluted DMSO). Data was fixed to a logistic model with four variables and IC50 value was calculated using GraphPad Prism program.

[1] = target: T2, recombinant human MAO-A (monoamine oxidase-A) (Homo sapiens, UniProt P21397); experiment: Activity evaluation on recombinant human MAO-A (Amplex Red/HRP-coupled assay, 0.5 mM tyramine substrate); conditions: read-out: Inhibitory Activity (IC50, nM) MAO-A
T2 construct: purchased Sigma-Aldrich
T2 sequence (P21397 1-527): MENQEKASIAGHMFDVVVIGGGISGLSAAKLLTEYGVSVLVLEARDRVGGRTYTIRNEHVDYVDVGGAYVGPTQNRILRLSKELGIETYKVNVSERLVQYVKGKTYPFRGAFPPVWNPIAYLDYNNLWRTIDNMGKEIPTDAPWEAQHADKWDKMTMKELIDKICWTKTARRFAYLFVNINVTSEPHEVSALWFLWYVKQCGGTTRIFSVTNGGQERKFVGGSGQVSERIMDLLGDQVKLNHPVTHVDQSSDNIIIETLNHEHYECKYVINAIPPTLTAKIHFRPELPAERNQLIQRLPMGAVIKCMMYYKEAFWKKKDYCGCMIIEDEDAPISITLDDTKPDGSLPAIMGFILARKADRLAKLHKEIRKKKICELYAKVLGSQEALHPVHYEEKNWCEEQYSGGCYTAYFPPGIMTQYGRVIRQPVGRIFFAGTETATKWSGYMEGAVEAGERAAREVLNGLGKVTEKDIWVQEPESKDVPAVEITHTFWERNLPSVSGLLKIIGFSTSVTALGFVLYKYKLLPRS
Description: as §1
(§2) In addition, the compounds according to the present technology were evaluated in terms of activity on a recombinant human MAO-A (monoamine oxidase-A, Sigma-Aldrich) and a recombinant human MAO-B (monoamine oxidase-B, Sigma-Aldrich) by using as substrates, 0.5 mM tyramine and 1 mM benzylamine, respectively, with a method similar to the activity evaluation method for recombinant human VAP-1. The compounds according to the present technology were also evaluated in terms of activity on a recombinant human DAO (diamine oxidase, R&D systems) by using as a substrate 1 mM putrescine with a method similar to the activity evaluation method for recombinant human VAP-1.

[2] = target: T3, recombinant human MAO-B (monoamine oxidase-B) (Homo sapiens, UniProt P27338); experiment: Activity evaluation on recombinant human MAO-B (Amplex Red/HRP-coupled assay, 1 mM benzylamine substrate); conditions: read-out: Inhibitory Activity (IC50, nM) MAO-B
T3 construct: purchased Sigma-Aldrich
T3 sequence (P27338 1-520): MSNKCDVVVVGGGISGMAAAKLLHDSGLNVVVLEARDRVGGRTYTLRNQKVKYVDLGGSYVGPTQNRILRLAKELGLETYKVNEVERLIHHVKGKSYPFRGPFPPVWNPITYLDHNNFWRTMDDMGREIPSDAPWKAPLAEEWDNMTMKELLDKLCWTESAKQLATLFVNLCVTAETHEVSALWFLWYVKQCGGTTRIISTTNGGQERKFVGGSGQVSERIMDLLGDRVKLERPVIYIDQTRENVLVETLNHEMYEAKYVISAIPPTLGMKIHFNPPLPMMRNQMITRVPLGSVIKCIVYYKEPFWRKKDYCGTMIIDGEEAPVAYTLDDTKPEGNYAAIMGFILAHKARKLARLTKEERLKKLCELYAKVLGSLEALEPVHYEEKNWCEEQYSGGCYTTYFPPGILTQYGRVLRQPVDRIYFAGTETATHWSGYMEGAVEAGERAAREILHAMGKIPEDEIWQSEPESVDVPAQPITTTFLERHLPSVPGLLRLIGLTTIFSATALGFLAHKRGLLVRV
Description: as §1, §2

[3] = target: T4, recombinant human DAO (diamine oxidase) (Homo sapiens, UniProt P19801); experiment: Activity evaluation on recombinant human DAO (Amplex Red/HRP-coupled assay, 1 mM putrescine substrate); conditions: read-out: Inhibitory Activity (IC50, nM) DAO
T4 construct: purchased R&D systems
T4 sequence (P19801 20-751): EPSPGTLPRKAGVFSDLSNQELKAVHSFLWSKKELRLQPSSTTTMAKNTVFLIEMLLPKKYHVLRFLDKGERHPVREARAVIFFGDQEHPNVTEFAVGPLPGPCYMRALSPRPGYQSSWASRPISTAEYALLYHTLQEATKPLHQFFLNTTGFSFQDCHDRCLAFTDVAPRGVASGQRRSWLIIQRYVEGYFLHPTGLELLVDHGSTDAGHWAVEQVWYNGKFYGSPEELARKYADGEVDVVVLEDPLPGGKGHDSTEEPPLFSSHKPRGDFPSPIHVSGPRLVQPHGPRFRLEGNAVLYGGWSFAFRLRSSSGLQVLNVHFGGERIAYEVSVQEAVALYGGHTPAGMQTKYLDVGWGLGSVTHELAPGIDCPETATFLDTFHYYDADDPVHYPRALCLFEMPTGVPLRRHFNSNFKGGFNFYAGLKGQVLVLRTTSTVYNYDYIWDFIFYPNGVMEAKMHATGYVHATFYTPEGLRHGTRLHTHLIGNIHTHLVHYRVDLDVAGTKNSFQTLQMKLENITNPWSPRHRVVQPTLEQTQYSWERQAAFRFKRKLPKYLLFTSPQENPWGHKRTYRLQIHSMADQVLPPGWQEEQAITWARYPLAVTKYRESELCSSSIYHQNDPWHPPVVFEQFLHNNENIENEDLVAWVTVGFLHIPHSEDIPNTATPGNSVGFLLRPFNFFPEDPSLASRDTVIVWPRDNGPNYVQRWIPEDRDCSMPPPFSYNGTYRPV
Description: as §1, §2

[4] = recombinant human VAP-1, 30 min preincubation at 37° C., 1 mM benzylamine
[5] = recombinant human VAP-1, benzylamine substrate

## CN(C)c1ccc(-c2ccc(Cn3cnn(CC(CN)=C(F)F)c3=O)s2)cn1 [Example 112, 2-[2-(aminomethyl)-3,3-difluoro-allyl]-4-[[5-[6-(dimethylamino)-3-pyridyl]-2-thienyl]methyl]-1,2,4-triazol-3-one Trifluoroacetate]
Recombinant human VAP-1; [4]
  IC50: 0.2 nM
[1]; 0.5 mM tyramine
  IC50: > 100000 nM
[2]; 1 mM benzylamine
  IC50: 26000 nM
[3]; 1 mM putrescine
  IC50: > 100000 nM

## NCC(Cn1ncn(Cc2ccc(-c3cnc4c(c3)CCCN4)s2)c1=O)=C(F)F [Example 145, 2-[2-(aminomethyl)-3,3-difluoro-allyl]-4-[[5-(5,6,7,8-tetrahydro-1,8-naphthyridin-3-yl)-2-thienyl]methyl]-1,2,4-triazol-3-one Ditrifluoroacetate]
Recombinant human VAP-1; [4]
  IC50: 0.8 nM
[1]; 0.5 mM tyramine
  IC50: > 100000 nM
[2]; 1 mM benzylamine
  IC50: > 100000 nM
[3]; 1 mM putrescine
  IC50: > 100000 nM

## Cc1cc(-c2ccc3nonc3c2)cnc1-n1cnn(CC(CN)=C(F)F)c1=O [Example 227, 2-[2-(aminomethyl)-3,3-difluoro-allyl]-4-[5-(2,1,3-benzoxadiazol-5-yl)-3-methyl-2-pyridyl]-1,2,4-triazol-3-one Trifluoroacetate]
Recombinant human VAP-1; [5]
  IC50: 0.7 nM
[1]; 0.5 mM tyramine substrate
  IC50: > 100000 nM
[2]; 1 mM benzylamine substrate
  IC50: 340 nM
[3]; 1 mM putrescine substrate
  IC50: 4800 nM

## CN(C)c1cc(-c2cccc(-n3cnn(CC(CN)=C(F)F)c3=O)n2)ccc1F [Example 217, 2-[2-(aminomethyl)-3,3-difluoro-allyl]-4-[6-[3-(dimethylamino)-4-fluoro-phenyl]-2-pyridyl]-1,2,4-triazol-3-one Trifluoroacetate]
Recombinant human VAP-1; [5]
  IC50: 1.1 nM
[1]; 0.5 mM tyramine substrate
  IC50: > 100000 nM
[2]; 1 mM benzylamine substrate
  IC50: 13700 nM
[3]; 1 mM putrescine substrate
  IC50: 1500 nM

## Cc1cc(-c2ccc(-n3cnn(CC(CN)=C(F)F)c3=O)c(F)c2)cc2c1NC(=O)CC2 [Example 36, 6-[4-[1-[2-(aminomethyl)-3,3-difluoro-allyl]-5-oxo-1,2,4-triazol-4-yl]-3-fluoro-phenyl]-8-methyl-3,4-dihydro-1H-quinolin-2-one Trifluoroacetate]
Recombinant human VAP-1; [4]
  IC50: 0.1 nM
[1]; 0.5 mM tyramine
  IC50: > 100000 nM
[2]; 1 mM benzylamine
  IC50: 160 nM
[3]; 1 mM putrescine
  IC50: 97 nM

## Cn1cc(-c2csc(Cn3cnn(CC(CN)=C(F)F)c3=O)c2)ccc1=O [Example 190, 5-[5-[[1-[2-(aminomethyl)-3,3-difluoro-allyl]-5-oxo-1,2,4-triazol-4-yl]methyl]-3-thienyl]-1-methyl-pyridin-2-one Trifluoroacetate]
Recombinant human VAP-1; [5]
  IC50: 1.4 nM
[1]; 0.5 mM tyramine substrate
  IC50: > 100000 nM
[2]; 1 mM benzylamine substrate
  IC50: > 100000 nM
[3]; 1 mM putrescine substrate
  IC50: 63000 nM

## Cc1cc(C#Cc2ccc3c(c2)NCCO3)cnc1-n1cnn(CC(CN)=C(F)F)c1=O [Example 243, 2-[2-(aminomethyl)-3,3-difluoro-allyl]-4-[5-[2-(3,4-dihydro-2H-1,4-benzoxazin-6-yl)ethynyl]-3-methyl-2-pyridyl]-1,2,4-triazol-3-one Ditrifluoroacetate]
Recombinant human VAP-1; [5]
  IC50: 0.9 nM
[1]; 0.5 mM tyramine substrate
  IC50: 32700 nM
[2]; 1 mM benzylamine substrate
  IC50: 2200 nM
[3]; 1 mM putrescine substrate
  IC50: 4600 nM

## NCC(Cn1ncn(Cc2ccc(-c3ccc(C(=O)N4CCOCC4)cc3)s2)c1=O)=C(F)F [Example 109, 2-[2-(aminomethyl)-3,3-difluoro-allyl]-4-[[5-(4-morpholine-4-carbonyl)phenyl]-2-thienyl]methyl]-1,2,4-triazol-3-one trifluoroacetate]
Recombinant human VAP-1; [4]
  IC50: 1.4 nM
[1]; 0.5 mM tyramine
  IC50: > 100000 nM
[2]; 1 mM benzylamine
  IC50: > 100000 nM
[3]; 1 mM putrescine
  IC50: 84000 nM

## Cc1cc(-c2ccc(C(=O)N3CCOCC3)cc2)cnc1-n1cnn(CC(CN)=C(F)F)c1=O [Example 236, 2-[2-(aminomethyl)-3,3-difluoro-allyl]-4-[3-methyl-5-[4-(morpholine-4-carbonyl)phenyl]-2-pyridyl]-1,2,4-triazol-3-one Trifluoroacetate]
Recombinant human VAP-1; [5]
  IC50: 0.8 nM
[1]; 0.5 mM tyramine substrate
  IC50: > 100000 nM
[2]; 1 mM benzylamine substrate
  IC50: > 100000 nM
[3]; 1 mM putrescine substrate
  IC50: 6700 nM

## CCn1cc(-c2ccc(-c3cnc(-n4cnn(CC(CN)=C(F)F)c4=O)c(C)c3)cc2)cn1 [Example 290, 2-[2-(aminomethyl)-3,3-difluoro-allyl]-4-[5-[4-(1-ethylpyrazol-4-yl)phenyl]-3-methyl-2-pyridyl]-1,2,4-triazol-3-one Trifluoroacetate]
Recombinant human VAP-1; [5]
  IC50: 0.7 nM
[1]; 0.5 mM tyramine substrate
  IC50: > 100000 nM
[2]; 1 mM benzylamine substrate
  IC50: 1190 nM
[3]; 1 mM putrescine substrate
  IC50: 2380 nM
